This series can be described thus: Dynamic viscosity of the amines (Anton Paar Stabinger SVM3000 viscometer). It counts as physicochemical.

With `CC(C)(C)NCCOCCO` [TBAEE, 2-(2-tert-butylaminoethoxy)ethanol, reference compound], the Dynamic viscosity is, setting by setting: (20 ° C.) 58.4 mPa · s; (60 ° C.) 6.9 mPa · s; (80 ° C.) 3.6 mPa · s.

Take `CN(C)CCOCCNC(C)(C)C` [TBAEEDA, 2-(2-tert-butylaminoethoxy)ethyl-N,N-dimethylamine]: the Dynamic viscosity by setting is: (20 ° C.) 5.4 mPa · s; (40 ° C.) 2.5 mPa · s; (60 ° C.) 1.6 mPa · s; (80 ° C.) 1.1 mPa · s.
